Paper PMC8949366, “Synthesis of Marine Cyclopeptide Galaxamide Analogues as Potential Anticancer Agents” (Marine Drugs, 2022)
Converted amounts (≈) assume the structure as drawn. “And” between values parts separate entries of the source, which are not always exact repeats. Equal values may be shown once. “Also recorded” adds a separate entry of the source. Read-outs that look alike come from different tables or passages of the source. Square brackets hold non-standard residues; d marks the D form. Peptide text beside a SMILES is read from it.

Tests used:
HepG2 = assay type: cell-based, human; settings: 72 h
Procedure: (§1) Cell culture: MCF-7/MD-MAB-231 (human breast cancer cell line ATCC HTB-22/HTB-26), Hep G2 (human liver cancer cell line ATCC HB-8065), Hela (human cervical carcinoma cell line ATCC CCL-2), A459 (human lung cancer cell line ATCC CCL-185), and HUVEC (primary umbilical vein endothelial cell line ATCC PCS-100-010) were obtained from the Jinan Department of Pathology, University School of Medicine (Jinan University, Guangzhou, China). The cells were cultured in a Modified Eagle’s Medium (DMEM) including 10% fetal bovine serum, 1% penicillin-streptomycin, and antifungal agent, and cultured under standard conditions (5% CO2 atmosphere and temperature at 37 °C). The MTT method was used to evaluate the cytotoxicities of galaxamide and its analogues on the five cancerous cells. In this experiment, the number of regulated cells was 2 × 10^3 cells/well. Then, the cells, as well as galaxamide and its analogues of different concentrations (0, 2.5, 5, and 10 μg/mL), were seeded on a 96-well cell culture plate and cultured in a 37 °C, 5% CO2 incubator for 72 h. After that, 20 µL/well of MTT solution (5 mg/mL phosphate-buffered saline) was added and incubated for 5 h. The medium was discarded and replaced with 100 µL/well of DMSO to dissolve the formazan salt. The color intensity of the cell culture at 570 nm was measured using a microplate spectrophotometer (SpectroAma™ 250, Winooski, VT, USA).

MCF-7 = assay type: cell-based, human; settings: 72 h
Procedure: as §1

HUVEC = assay type: cell-based, human; settings: 72 h
Procedure: as §1

MD-MBA-231 = assay type: cell-based, human; settings: 72 h
Procedure: as §1

Hela = assay type: cell-based, human; settings: 72 h
Procedure: as §1

A549 = assay type: cell-based, human; settings: 72 h
Procedure: as §1

MCF-7 cells [1] = assay: Annexin V-FITC/PI double staining apoptosis, flow cytometry; assay type: cell-based, human; settings: 0, 2.5, 5, 10 µg/mL, 72 h
Procedure: The Annexin V-FITC/PI double staining method was used to analyze the changes in the apoptosis of MCF-7 cells after 72 h of galaxamide, Z-3, and Z-6 exposure. […] At low concentrations, the effects of all the tested compounds were not obvious. When the concentration reached 10 μg/mL, the apoptotic effects of galaxamide, Z-3, and Z-6 on MCF-7 cells were more obvious in the late apoptotic state.
(§2) The concentration of 1 × 10^4 cells per well of MCF-7 cells were seeded in 96-well plates. The cell cultures were added to the compounds with a concentration of 0, 2.5, 5, and 10 µg/mL, and incubated for 72 h. After that, 5 µL of Annexin V-fluorescein isothiocyanate (FITC) and 5 µL of PI were added for dual staining of the cells for analysis by FACS flow cytometry. Cell cycles and apoptotic cells were determined by counting the FITC-positive and PI-negative fractions.
The apoptotic cells were quantified according to the instructions provided in an Annexin V-FITC (Sigma-Aldrich, St. Louis, MO, USA) cell apoptosis assay kit. Briefly, about 1.5 × 10^5 cells were plated in 96-well plates and treated with galaxamide and its representative analogues (0, 2.5, 5, and 10 µg/mL) for 48 h. The cells were then resuspended in a […] binding buffer. Afterward, […] of annexin V-fluorescein isothiocyanate (FITC) was added, followed by incubation in darkness at room temperature for 10 min. The cells were again resuspended in […] binding buffer and stained with […] PI. The prepared cells were then analyzed using a flow cytometry (Coulter Epics Elite, Miami, FL, USA). The cells in the FITC-positive and PI-negative fractions were regarded as apoptotic cells.

MCF-7 cells [2] = assay: Hoechst 33,342 staining of nuclear morphology; assay type: cell-based, human; settings: 72 h
Procedure: The morphological alteration of MCF-7 cells was analyzed by the method of Hoechst 33,342 staining (Figure 5). […] The pyknotic nuclei increased with the increasing concentration of these compounds.
[…] After that, the cell culture was washed with 1 mL of PBS and then added with 3 mL of 4% paraformaldehyde solution for 15 min. Then, 1 mL of the prepared Hoechst 33,342 staining solution was added. The resulting mixture was incubated at room temperature for 15 min in the dark.

MCF-7 cells [3] = assay: Cell cycle distribution by propidium iodide staining / flow cytometry; assay type: cell-based, human; settings: 0, 2.5, 5, 10 µg/mL, 72 h
Procedure: Therefore, propidium iodide (PI) staining method was used to further investigate the changes in the cell cycle distribution of MCF-7. In particular, MCF-7 cells were exposed to galaxamide, Z-3, and Z-6 with concentrations of 0, 2.5, 5, and 10 µg/mL for 72 h. Generally, the main effects of galaxamide, Z-3, and Z-6 on MCF-7 cells were in the G0/G1 phase. There was no obvious sub diploid peak in flow cytometry.
as §2

[4] = amide bond, 15-membered ring, PyBOP/DIEA, DCM, 0.375 mM, 25.0 °C

SMILES	IC50 HepG2 (HepG2) [µg/mL]	IC50 MCF-7 (MCF-7) [µg/mL]	IC50 HUVEC (HUVEC) [µg/mL]	IC50 MD-MBA-231 (MD-MBA-231) [µg/mL]	IC50 Hela (Hela) [µg/mL]	IC50 A549 (A549) [µg/mL]	also measured
CC(C)C[C@@H]1NC(=O)[C@H](CC(C)C)N(C)C(=O)[C@H](CC(C)C)NC(=O)[C@@H]2CCCN2C(=O)[C@H](CC(C)C)NC1=O [Compound Z-1, Cyclo (Leu-N-Me-Leu-Leu-Pro-Leu)]	7.57 ± 0.17 (≈ 13.4 µM)	5.85 ± 1.28 (≈ 10.4 µM)	>40	17.81 ± 0.60 (≈ 31.6 µM)	11.56 ± 0.65 (≈ 20.5 µM)	4.92 ± 0.84 (≈ 8.73 µM)	
CC(C)C[C@@H]1NC(=O)[C@@H]2CCCN2C(=O)[C@H](CC(C)C)NC(=O)[C@@H]2CCCN2C(=O)[C@H](CC(C)C)NC1=O [Compound Z-2, Cyclo (Leu-Pro-Leu-Pro-Leu)] (cyclo(LLPLP))	11.95 ± 0.64 (≈ 22.4 µM)	4.68 ± 1.22 (≈ 8.77 µM)	>40	14.45 ± 1.10 (≈ 27.1 µM)	14.50 ± 0.36 (≈ 27.2 µM)	7.97 ± 2.06 (≈ 14.9 µM)	
CC(C)C[C@@H]1NC(=O)[C@@H](CC(C)C)NC(=O)[C@@H]2CCCN2C(=O)[C@H](CC(C)C)NC(=O)[C@@H]2CCCN2C1=O [Compound Z-3, Cyclo (Leu-Pro-Leu-Pro-Leu)] (cyclo(LPLP[dL]))	5.05 ± 0.45 (≈ 9.46 µM)	2.25 ± 0.42 (≈ 4.22 µM)	>40	6.34 ± 0.60 (≈ 11.9 µM)	5.57 ± 0.45 (≈ 10.4 µM)	6.43 ± 0.43 (≈ 12 µM)	Apoptosis of MCF-7 cells (in words) (MCF-7 cells [1]): significantly higher than those of galaxamide; also recorded: concentration-dependent apoptosis; Nuclear morphology of MCF-7 cells (in words) (MCF-7 cells [2]): the morphology of the nuclei was significantly changed; Effect on cell cycle of MCF-7 (in words) (MCF-7 cells [3]): mainly blocked the growth of cells in the G0/G1 phase
CC(C)C[C@@H]1NC(=O)[C@@H]2CCCN2C(=O)[C@H](CC(C)C)NC(=O)[C@@H]2CCCN2C(=O)[C@@H](CC(C)C)NC1=O [Compound Z-4, Cyclo (Leu-Pro-D-Leu-Pro-Leu)] (cyclo(LPL[dL]P))	15.23 ± 1.14 (≈ 28.5 µM)	4.88 ± 0.58 (≈ 9.14 µM)	>40	22.09 ± 1.12 (≈ 41.4 µM)	7.38 ± 0.83 (≈ 13.8 µM)	9.85 ± 0.95 (≈ 18.5 µM)	
CC(C)C[C@@H]1NC(=O)[C@@H]2CCCN2C(=O)[C@@H](CC(C)C)NC(=O)[C@@H]2CCCN2C(=O)[C@H](CC(C)C)NC1=O [Compound Z-5, Cyclo (Leu-Pro-Leu-Pro-D-Leu)] (cyclo(LLP[dL]P))	14.98 ± 0.93 (≈ 28.1 µM)	13.43 ± 1.96 (≈ 25.2 µM)	>40	8.48 ± 1.12 (≈ 15.9 µM)	12.12 ± 0.95 (≈ 22.7 µM)	9.50 ± 1.13 (≈ 17.8 µM)	
CC(C)C[C@@H]1NC(=O)[C@@H]2CCCN2C(=O)[C@@H](CC(C)C)NC(=O)[C@@H]2CCCN2C(=O)[C@@H](CC(C)C)NC1=O [Compound Z-7, Cyclo (Leu-Pro-D-Leu-Pro-D-Leu)] (cyclo(L[dL]P[dL]P))	13.85 ± 1.99 (≈ 26 µM)	13.28 ± 3.28 (≈ 24.9 µM)	>40	16.52 ± 1.70 (≈ 31 µM)	18.21 ± 1.35 (≈ 34.1 µM)	9.97 ± 1.00 (≈ 18.7 µM)	
CC(C)C[C@H]1NC(=O)[C@@H]2CCCN2C(=O)[C@@H](CC(C)C)NC(=O)[C@@H]2CCCN2C(=O)[C@@H](CC(C)C)NC1=O [Compound Z-8, Cyclo (D-Leu-Pro-D-Leu-Pro-D-Leu)] (cyclo(P[dL]P[dL][dL]))	9.00 ± 0.83 (≈ 16.9 µM)	7.82 ± 1.18 (≈ 14.7 µM)	>40	20.16 ± 2.24 (≈ 37.8 µM)	7.97 ± 0.61 (≈ 14.9 µM)	15.88 ± 1.42 (≈ 29.8 µM)	
CC(C)C[C@H]1NC(=O)[C@@H]2CCCN2C(=O)[C@@H](CC(C)C)NC(=O)[C@@H]2CCCN2C(=O)[C@@H](CC(C)C)NC1=O [Cyclo (D-Leu-Pro-D-Leu-Pro-D-Leu)]							ring closure, yield after HPLC ([4]; from H-dLeu-Pro-dLeu-Pro-dLeu-OH?): 46.2%
CC(C)C[C@@H]1NC(=O)[C@@H]2CCCN2C(=O)[C@@H](CC(C)C)NC(=O)[C@@H](CC(C)C)NC(=O)[C@@H]2CCCN2C1=O [Cyclo (D-Leu-Pro-Leu-Pro-D-Leu)]							ring closure, yield after HPLC ([4]; from H-dLeu-Pro-Leu-Pro-dLeu-OH?): 34.5%
CC(C)C[C@@H]1NC(=O)[C@H](CC(C)C)N(C)C(=O)[C@H](CC(C)C)NC(=O)[C@@H]2CCCN2C(=O)[C@H](CC(C)C)NC1=O [Cyclo (Leu-N-Me-Leu-Leu-Pro-Leu)]							ring closure, yield after HPLC ([4]; from H-Leu-Pro-Leu-MeLeu-Leu-OH): 40.7%
CC(C)C[C@@H]1NC(=O)[C@@H]2CCCN2C(=O)[C@@H](CC(C)C)NC(=O)[C@@H]2CCCN2C(=O)[C@@H](CC(C)C)NC1=O [Cyclo (Leu-Pro-D-Leu-Pro-D-Leu)]							ring closure, yield after HPLC ([4]; from H-dLeu-Pro-dLeu-Pro-Leu-OH?): 54.6%
CC(C)C[C@@H]1NC(=O)[C@@H]2CCCN2C(=O)[C@@H](CC(C)C)NC(=O)[C@@H]2CCCN2C(=O)[C@H](CC(C)C)NC1=O [Cyclo (Leu-Pro-D-Leu-Pro-Leu)]							ring closure, yield after HPLC ([4]; from H-Leu-Pro-dLeu-Pro-Leu-OH?): 36.4%
CC(C)C[C@@H]1NC(=O)[C@@H]2CCCN2C(=O)[C@H](CC(C)C)NC(=O)[C@@H]2CCCN2C(=O)[C@@H](CC(C)C)NC1=O [Cyclo (Leu-Pro-Leu-Pro-D-Leu)]							ring closure, yield after HPLC ([4]; from H-dLeu-Pro-Leu-Pro-Leu-OH?): 58.9%
CC(C)C[C@@H]1NC(=O)[C@@H]2CCCN2C(=O)[C@H](CC(C)C)NC(=O)[C@@H]2CCCN2C(=O)[C@H](CC(C)C)NC1=O [Cyclo (Leu-Pro-Leu-Pro-Leu)]							ring closure, yield after HPLC ([4]; from H-Leu-Pro-Leu-Pro-Leu-OH?): 35.5% and 53.9%
